Data taken from patent US8735423B2, “Bicyclic compounds as α4β2 nicotinic acetylcholine receptor ligands” (priority 2009, dated 2014).
Where a name gives a salt, the structure may show the parent alone. Read-outs that look alike come from different tables or passages of the source.

Legend:
[1] = target: T1, recombinant human α4β2 nicotinic acetylcholine receptor (Homo sapiens, UniProt P17787+P43681); experiment: Determination of IC50 and Kb values, aequorin luminescence assay in CHO cells; type: cell-based
T1 construct: expressed in transfected cells
T1 sequence (P43681 29-627): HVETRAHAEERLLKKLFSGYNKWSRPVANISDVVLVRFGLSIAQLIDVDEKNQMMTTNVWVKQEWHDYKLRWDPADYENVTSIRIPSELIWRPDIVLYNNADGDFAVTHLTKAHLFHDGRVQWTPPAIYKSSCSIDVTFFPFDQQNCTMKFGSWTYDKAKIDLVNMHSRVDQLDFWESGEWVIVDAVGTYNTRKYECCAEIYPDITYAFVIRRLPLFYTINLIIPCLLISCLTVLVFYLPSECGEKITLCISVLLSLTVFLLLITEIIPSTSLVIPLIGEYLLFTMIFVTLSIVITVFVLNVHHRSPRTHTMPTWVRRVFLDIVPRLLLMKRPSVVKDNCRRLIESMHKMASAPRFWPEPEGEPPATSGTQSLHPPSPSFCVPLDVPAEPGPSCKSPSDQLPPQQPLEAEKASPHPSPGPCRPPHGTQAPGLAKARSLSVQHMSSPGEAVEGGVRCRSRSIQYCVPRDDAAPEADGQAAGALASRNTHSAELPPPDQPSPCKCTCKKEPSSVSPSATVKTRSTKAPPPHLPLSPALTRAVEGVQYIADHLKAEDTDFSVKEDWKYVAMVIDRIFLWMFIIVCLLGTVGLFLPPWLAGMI
T1 sequence (P17787 26-502): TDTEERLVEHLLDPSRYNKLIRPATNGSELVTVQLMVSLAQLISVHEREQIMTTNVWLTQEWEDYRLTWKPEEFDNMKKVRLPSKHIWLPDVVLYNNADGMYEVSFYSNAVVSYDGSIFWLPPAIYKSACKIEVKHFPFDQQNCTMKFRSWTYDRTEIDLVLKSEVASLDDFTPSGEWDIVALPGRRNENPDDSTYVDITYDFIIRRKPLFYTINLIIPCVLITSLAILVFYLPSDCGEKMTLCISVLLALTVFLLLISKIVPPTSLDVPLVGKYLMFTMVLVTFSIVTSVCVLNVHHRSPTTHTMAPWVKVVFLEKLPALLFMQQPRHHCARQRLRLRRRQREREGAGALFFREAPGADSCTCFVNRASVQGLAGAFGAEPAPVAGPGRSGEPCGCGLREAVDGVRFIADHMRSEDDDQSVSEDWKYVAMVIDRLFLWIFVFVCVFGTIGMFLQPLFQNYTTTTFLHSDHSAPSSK
Experimental: Determination of IC50 and Kb Values for Nicotinic Acetylcholine α4β2 Receptor Ligands
A stable CHO cell line expressing recombinant human α4β2 nicotinic acetylcholine receptor transiently expressing aequorin protein was used for cell-based assay. The assay offers a non-radioactive based approach to determine binding of a compound to ligand gated ion channels. In this specific assay, the level of intracellular calcium which is modulated by activation or inhibition of the channel is measured. Both the channel and aequorin genes are expressed at high level under the control of powerful CMV promotor.
The above cells were grown in 96 well clear bottom white plates in Hams F12 medium containing 10% fetal bovine serum (FBS). Prior to the addition of compounds and/or agonist, cells were serum starved for six hours. Coelentarazine (a prosthetic group for aequorin protein) was added in the medium containing 0.1% dialyzed serum and incubated overnight at 27° C. Cells were washed with assay buffer and increasing concentration of the test compound or standard were added to the plate for antagonist mode. A fixed concentration of the agonist (eipbatidine) was injected into the plate and luminescence was measured for 10 seconds. For evaluation of the compound in agonist mode, increasing concentration of the standard or test compound was injected and the luminescence was measured. Luminescence units were plotted against the compound concentrations using Graphpad software. IC50 values of the compounds were defined as the concentration required in reducing the luminescent units by 50%. The Kb values were calculated by feeding the concentration of the agonist used in the assay and its EC50 value in the same software.
Literature References: Karadsheh M. S., Shah M. S., Tang X., Macdonald R. L. and Stitzel J. A. Functional characterization of mouse α4β2 nicotinic acetylcholine receptors stably expressed in HEK293T cells. J. Neurochem. 2004, 91, 1138-1150.

[2] = target: Human or Rat Nicotinic Acetylcholine α4β2 receptor (UniProt P09483+P12390); experiment: Binding assay for Human or Rat Nicotinic Acetylcholine α4β2 receptor ([3H] Cytisine); details: [3H] Cytisine 2.5 nM, rat brain frontal cortex or recombinant human cDNA expressed in CHO cells
Experimental: Binding assay for Human or Rat Nicotinic Acetylcholine α4β2 receptor
Compounds can be evaluated according to the following procedures.
Materials and Methods: • Receptor source: Rat brain frontal cortex or recombinant human cDNA expressed in CHO cells • Radioligand: [^3H] Cytisine 15-40 Ci/mmol • Final ligand concentration—[2.5 nM] • Non-specific determinant: Epibatidine-[0.1 μM] • Reference compound: Epibatidine • Positive control: Epibatidine Incubation Conditions:
Increasing concentrations of test compounds or standard were incubated with membrane receptors and radioligand in 120 mM NaCl, 2.5 mM KCl, 1 mM CaCl2, 1 mM MgCl2 and 50 mM TRIS-HCl (pH 7.4) for 60 minutes at room temperature. The reaction was terminated by rapid vacuum filtration onto the glass fiber filters. Radioactivity trapped onto the filters was determined and compared to the control values in order to ascertain any interactions of the test compound(s) with either cloned human or rat receptor binding site.
Literature Reference: Bunnelle W. H., Daanen J. F., Ryther K. B., Schrimpf M. R., Dart M. J., Gelain A., Meyer M. D., Frost J. M., Anderson D. J., Buckley M., Curzon P., Cao Y-J., Puttfarcken P., Searle X., Ji J., Putman C. B., Surowy C., Toma L. and Barlocco D. Structure-Activity Studies and Analgesic Efficacy of N-(3-Pyridinyl)-Bridged Bicyclic Diamines, Exceptionally Potent Agonists at Nicotinic Acetylcholine Receptors. J. Med. Chem. 2007, 50, […].

[3] = Rodent Brain Penetration Study; details: in vivo; Wistar rat male, P.O, 5 mg/kg; read-out: Steady State Brain Penetration (Cb/Cp)
Experimental: Rodent Brain Penetration Study
Male Wistar rats (230-280 grams) obtained from NIN (National Institute of Nutrition, Hyderabad, India) was used as an experimental animal. Three animals were housed in each cage. Animals were given water and food ad libitum throughout the experiment, and maintained on a 12 hours light/dark cycle.
NCE compound was dissolved in water and administered orally. At Tmax (0.5, 1.0 and 2.0) animals were sacrificed to collect the plasma and brain tissue and was homogenized. Plasma and Brain was stored frozen at −20° C. until analysis. The concentrations of the NCE compound in plasma and Brain were determined using LC-MS/MS method.
The NCE compounds were quantified in plasma and brain homogenate by validated LC-MS/MS method using solid phase extraction technique. NCE compounds were quantified in the calibration range of 1-500 ng/mL in plasma and brain homogenate. Study samples were analyzed using calibration samples in the batch and quality control samples spread across the batch. Extents of brain-blood ratio were calculated (Cb/Cp).

[4] = Rodent Pharmacokinetic Study; details: Wistar, in vivo, Wister rat male; for AUC(0-t) / Cmax / Tmax / half-life: 5 mg/kg; for bioavailability: P.O 5 mg/kg vs I.V 5 mg/kg
Experimental: Rodent Pharmacokinetic Study
Male wistar rats (230-280 grams) obtained from NIN (National Institute of Nutrition, Hyderabad, India) were used as an experimental animal. Three to five animals were housed in each cage. Animals were kept fasted over night and maintained on a 12 hours light/dark cycle. […]
At each time point blood was collected by jugular vein. Plasma was stored frozen at −20° C. until analysis. The concentrations of the NCE compound in plasma were determined using LC-MS/MS method. Schedule time points: Pre dose 0.25, 0.5, 1, 1.5, 2, 3, 4, 6, 8, 10, 12 and 24 hours after dosing (n=3). The NCE compounds were quantified in plasma by validated LC-MS/MS method using solid phase extraction technique. NCE compounds were quantified in the calibration range of 1-2000 ng/mL in plasma. Study samples were analyzed using calibration samples in the batch and quality control samples spread across the batch. Pharmacokinetic parameters Cmax, Tmax, AUCs, T112 and Bioavailability were calculated by non-compartmental model using software WinNonlin version 5.0.1.

Male Wister rats = experiment: Reversal of Formalin Induced Nociception; type: in vivo; details: rat, p.o., formalin 5% v/v subplantar
Experimental: Reversal of Formalin Induced Nociception
The anti-nociceptive properties of compounds of this invention were evaluated using a model of pain: the Formalin Induced Nociception model. Male Wister rats (230-280 grams) obtained from N. I. N. (National Institute of Nutrition, Hyderabad, India) was used as experimental animals.
Rats were habituated for 20 minutes in the arena before the experiment was started. Duration of licks, bites and flinches were noted from 0-10 minutes and 20-35 minutes after administration of formalin, subplantar into the right hind paw at concentrations of 5% v/v. 50 μL of water for injection was injected into the right hind paw of the rats of the sham group. Compounds of this invention were administered orally prior to formalin administration.

[5] = antagonist mode, fixed concentration of agonist epibatidine, CHO cells, luminescence, read-out: Kb

Q: What does the source list for `CN1C(COc2cccnc2)CC2CC21` (centres unmarked) [Example 2, 2-Methyl-3-(pyridin-3-yloxymethyl)-2-azabicyclo[3.1.0]hexane]?
A: Kb [1]: 0.4 nM; Ki ([2]; read-out: Ki): 5.5 nM

Q: Which Ki ([2]; read-out: Ki) does the source give for `CN1C(COc2cncc(Br)c2)CC2CC21` (centres unmarked) [Example 17, 3-(5-Bromopyridin-3-yloxymethyl)-2-methyl-2-azabicyclo[3.1.0]hexane dihydrochloride] here?
A: 4.2 nM

Q: What does the source list for `Cc1ccc(OCC2CC3CC3N2C)cn1` (centres unmarked) [Example 13, 2-Methyl-3-(2-methylpyridin-5-yloxymethyl)-2-azabicyclo[3.1.0]hexane]?
A: Kb [1, 5]: 5 nM; Ki [2]: 0.3 nM

Q: Which results are given for `CN1C(COc2cccnc2Cl)CC2CC21` (centres unmarked) [Example 11, 3-(2-Chloropyridin-3-yloxymethyl)-2-methyl-2-azabicyclo[3.1.0]hexane]?
A: Kb [1]: 13.5 nM; Ki ([2]; read-out: Ki): 28.1 nM

Q: With `CN1C(COc2ccc(F)nc2)CC2CC21` (centres unmarked) [Example 15, 3-(2-Fluoropyridin-5-yloxymethyl)-2-methyl-2-azabicyclo[3.1.0]hexane] as the compound, how does the Ki ([2]; read-out: Ki) read?
A: 1.1 nM

Q: For `CN1C(COc2cncc(Cl)c2)CC2CC21` (centres unmarked) [Example 16, 3-(5-Chloropyridin-3-yloxymethyl)-2-methyl-2-azabicyclo[3.1.0]hexane], which Kb [1] is on record?
A: 0.4 nM

Q: And the Ki ([2]; read-out: Ki)?
A: 0.37 nM

Q: Which results are given for `Cl.Cl.Clc1ccc(OCC2CC3CC3N2)cn1` (centres unmarked) [Example 5, 3-(2-Chloropyridin-5-yloxymethyl)-2-azabicyclo[3.1.0]hexane dihydrochloride]?
A: Kp [3]: 2.34 ± 0.25; Ki [2]: 1.5 nM; AUC(0-t) ([4]; iv, I.V): 5380 ± 821 ng·h/mL; Cmax ([4]; iv, I.V): 2720 ± 588 ng/mL; Tmax ([4]; iv, I.V): 4.8 min; half-life ([4]; iv, I.V): 151 ± 25.8 min; bioavailability ([4]; po): 66 ± 12%; AUC(0-t) ([4]; po, P.O): 3510 ± 657 ng·h/mL; Cmax ([4]; po, P.O): 1910 ± 675 ng/mL; Tmax ([4]; po, P.O): 15 min; half-life ([4]; po, P.O): 200 ± 36 min

Q: Which Ki ([2]; read-out: Ki) does the source give for `CN1C(COc2ccc(Cl)nc2)CC2CC21` (centres unmarked) [Example 14, 3-(2-Chloropyridin-5-yloxymethyl)-2-methyl-2-azabicyclo[3.1.0]hexane] here?
A: 3.4 nM

Q: Which Kb [1, 5] does the source give for `Cc1ccc(OCC2CC3CC3N2)cn1` (centres unmarked) [Example 18, 3-(2-Methylpyridin-5-yloxymethyl)-2-azabicyclo[3.1.0]hexane] here?
A: 22 nM

Q: What about the Ki [2] of the same compound?
A: 26.1 nM

Q: For `CN1C(COc2cccnc2F)CC2CC21` (centres unmarked) [Example 10, 3-(2-Fluoropyridin-3-yloxymethyl)-2-methyl-2-azabicyclo[3.1.0]hexane tartrate], which Ki ([2]; read-out: Ki) is on record?
A: 31.9 nM

Q: Which Kp [3] does the source give for `Cl.Cl.Clc1ncccc1OCC1CC2CC2N1` (centres unmarked) [Example 4, 3-(2-Chloropyridin-3-yloxymethyl)-2-azabicyclo[3.1.0]hexane dihydrochloride] here?
A: 3.6 ± 0.99

Q: And the Ki ([2]; read-out: Ki)?
A: 17.5 nM

Q: What about the AUC(0-t) ([4]; iv, I.V) of the same compound?
A: 4160 ± 878 ng·h/mL

Q: And the Cmax ([4]; iv, I.V)?
A: 2600 ± 42 ng/mL

Q: What about the Tmax ([4]; iv, I.V) of the same compound?
A: 4.8 min

Q: What about the half-life ([4]; iv, I.V) of the same compound?
A: 93 ± 15 min

Q: And the bioavailability ([4]; po)?
A: 54 ± 23%

Q: And the AUC(0-t) ([4]; po, P.O)?
A: 2160 ± 658 ng·h/mL

Q: And the Cmax ([4]; po, P.O)?
A: 921 ± 268 ng/mL

Q: And the Tmax ([4]; po, P.O)?
A: 15 min

Q: And the half-life ([4]; po, P.O)?
A: 129 ± 30.6 min

Q: Which results are given for `Cl.Cl.Fc1ccc(OCC2CC3CC3N2)cn1` (centres unmarked) [Example 6, 3-(2-Fluoropyridin-5-yloxymethyl)-2-azabicyclo[3.1.0]hexane dihydrochloride]?
A: Dose (reversal of formalin induced nociception) (Male Wister rats): ≦30 mg/kg, p.o.; Ki ([2]; read-out: Ki): 3.9 nM

Q: For `Brc1cncc(OCC2CC3CC3N2)c1` (centres unmarked) [Example 8, 3-(5-Bromopyridin-3-yloxymethyl)-2-azabicyclo[3.1.0]hexane tartrate], which Ki ([2]; read-out: Ki) is on record?
A: 6.4 nM

Q: Which Ki ([2]; read-out: Ki) does the source give for `Clc1cncc(OCC2CCC3CC3N2)c1` (centres unmarked) [Example 20, 3-(5-Chloropyridin-3-yloxymethyl)-2-azabicyclo[4.1.0]heptane hydrochloride] here?
A: 216 nM

Q: Which Ki ([2]; read-out: Ki) does the source give for `Fc1ncccc1OCC1CC2CC2N1` (centres unmarked) [Example 9, 3-(2-Fluoropyridin-3-yloxymethyl)-2-azabicyclo[3.1.0]hexane tartrate] here?
A: 17.4 nM

Q: For `c1cncc(OCC2CCC3CC3N2)c1` (centres unmarked) [Example 19, 3-(Pyridin-3-yloxymethyl)-2-azabicyclo[4.1.0]heptane hydrochloride], which Ki ([2]; read-out: Ki) is on record?
A: 8.2 nM

Q: With `Cc1ncccc1OCC1CC2CC2N1C` (centres unmarked) [Example 12, 2-Methyl-3-(2-methylpyridin-3-yloxymethyl)-2-azabicyclo[3.1.0]hexane] as the compound, how does the Ki ([2]; read-out: Ki) read?
A: 231 nM

Q: With `Cc1ncccc1OCC1CC2CC2N1` (centres unmarked) [Example 3, 3-(2-Methylpyridin-3-yl-oxymethyl)-2-azabicyclo[3.1.0]hexane dihydrochloride] as the compound, how does the Ki ([2]; read-out: Ki) read?
A: 1000 nM
